How the values were obtained:
OAT1 = molecular target: T1, OAT1 (Homo sapiens, UniProt Q4U2R8); conditions: cited from earlier work
T1 construct: expressed in transfected cells
T1 sequence (Q4U2R8 1-563): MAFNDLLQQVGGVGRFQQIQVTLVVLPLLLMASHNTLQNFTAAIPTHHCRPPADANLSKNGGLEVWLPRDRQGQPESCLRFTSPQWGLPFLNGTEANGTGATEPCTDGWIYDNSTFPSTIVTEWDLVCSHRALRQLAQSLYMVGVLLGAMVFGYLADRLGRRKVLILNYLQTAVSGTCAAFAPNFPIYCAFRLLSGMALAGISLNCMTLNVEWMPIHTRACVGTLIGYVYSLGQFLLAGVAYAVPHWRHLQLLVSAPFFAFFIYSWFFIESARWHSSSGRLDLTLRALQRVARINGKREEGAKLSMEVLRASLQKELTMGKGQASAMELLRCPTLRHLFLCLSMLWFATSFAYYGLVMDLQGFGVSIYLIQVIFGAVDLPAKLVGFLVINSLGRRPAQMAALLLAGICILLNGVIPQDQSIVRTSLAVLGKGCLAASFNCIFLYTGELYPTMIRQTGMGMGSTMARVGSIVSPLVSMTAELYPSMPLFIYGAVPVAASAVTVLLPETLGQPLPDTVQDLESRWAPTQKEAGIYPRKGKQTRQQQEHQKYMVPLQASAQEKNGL

[1] = pharmacokinetic profile of 3MGA in EHBRs orally treated with GA (50 mg/kg); assay type: in vivo; conditions: Eisai Hyperbilirubinemia rats (EHBR), rat, plasma; female EHBRs, GA 50 mg/kg oral; read-out: time of maximum plasma concentration
Procedure: Female EHBRs (8 or 9-week-old) were orally treated with GA (50 mg/kg) suspended in 0.5% CMC, and kept in metabolic cages. Blood samples (approximately 0.3 ml) were collected from the tail 1, 2, 3, 6, 12, 24, and 48 h after the oral treatment. Urine samples were collected 6, 12, 24, and 48 h after the oral treatment. The concentrations of 3MGA in the samples were measured by both ELISA and LC-MS/MS described in our previous paper. Ten µl aliquots of plasma or urine from rats treated with GA, or standard solution of 3MGA in plasma or urine collected from normal rats were mixed with 20 µl of 1:1,000 diluted subtilisin, and incubated at 37 °C for 30 min. After adding 70 µl of EtOH containing 10 µg/ml of PHB used as internal standard, the solution was applied into the system. The mass spectrometer used an electrospray ionization source in the positive ion mode with multiple reaction monitoring (ESI(+)MS-MRM). The analytical column was an Inertsil ODS-4, 2 mm i.d. ×75 mm, 3 µm (GL Sciences Inc., Tokyo, Japan). […] The transitions (precursor to daughter) monitored and retention times were 647.4 to 453.5 m/z for 3MGA (4.4 min) and 195.2 to 139.0 m/z for PHB (4.8 min). […]

OAT3 = molecular target: T2, OAT3 (Homo sapiens, UniProt Q8TCC7); conditions: cited from earlier work
T2 construct: expressed in transfected cells
T2 sequence (Q8TCC7 1-542): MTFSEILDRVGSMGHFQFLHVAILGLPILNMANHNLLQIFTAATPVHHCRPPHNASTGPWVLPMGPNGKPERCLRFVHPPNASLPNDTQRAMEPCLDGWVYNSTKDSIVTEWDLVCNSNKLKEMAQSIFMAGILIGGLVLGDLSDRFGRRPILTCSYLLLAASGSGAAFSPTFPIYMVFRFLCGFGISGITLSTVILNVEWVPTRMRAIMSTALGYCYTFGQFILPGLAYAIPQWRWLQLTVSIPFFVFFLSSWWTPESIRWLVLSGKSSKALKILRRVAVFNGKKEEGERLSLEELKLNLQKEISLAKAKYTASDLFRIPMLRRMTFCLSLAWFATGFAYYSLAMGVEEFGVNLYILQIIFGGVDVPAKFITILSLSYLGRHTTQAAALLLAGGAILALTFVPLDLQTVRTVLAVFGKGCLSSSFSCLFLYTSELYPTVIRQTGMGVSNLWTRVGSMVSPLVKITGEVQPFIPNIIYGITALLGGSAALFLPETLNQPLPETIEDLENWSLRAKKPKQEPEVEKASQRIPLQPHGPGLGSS

anti-3MGA MAb = assay: competitive ELISA cross-reactivity of anti-3MGA MAb; assay type: binding, mouse; conditions: CR = IC50 for 3MGA / IC50 for compound x 100, 3MGA calibrated as 100%
Procedure: To activate the hapten 3MGA for the preparation of anti-3MGA MAb, the 3MGA-KLH conjugate was synthesized by using a model based on the carbodiimide method with both EDC and NHS reagents. 3MGA-HSA was also prepared using the same method, and was used for ELISA. We also evaluated the hapten number of the 3MGA-HSA conjugate by MALDI-TOF MS analysis. […] The MAb was developed by using the same methods described in our previous study. Hybridomas secreting antibodies recognizing 3MGA were selected by ELISA and then subcloned 4 times by the limited dilution method. […] The heavy chain of the obtained MAb was classified using a Calbiochem mouse hybridoma subisotyping kit (EMD Biosciences, Darmstadt, Germany), whereas the light chain was estimated using an IsoQuick^TM mouse monoclonal isotyping strip (Sigma) according to the manufacturer’s instructions.
3MGA-HSA (1 µg/ml in 50 mM carbonate buffer, pH 9.6) was added into a 96-well plate (Nagel Nunc, Penfield, NY, USA) (100 µl/well), and incubated at 37 °C for 1 h. After the removal of 3MGA-HSA, the wells were washed with 200 µl/well PBS containing 0.05% Tween 20 (T-PBS) for 3 times. The wells were incubated with 300 µl/well of 5% skim milk (Morinaga-milk, Tokyo, Japan) at 4 °C overnight. […] After the wells were washed with T-PBS 3 times, HRP-labeled goat anti-mouse IgG (Fc specific) antibody (1:1,000 dilution with T-PBS) was added into the wells (100 µl/well), and the plate was incubated at 37 °C for 1 h. Next, the wells were washed with T-PBS 3 times, the substrate solution (0.006% H2O2 in 200 mM citrate buffer, pH 4.0/H2O/0.6 mg/ml ABTS 10:9:1) was added into the wells (100 µl/well), and incubated at room temperature for 15 min.

rat 11β-HSD2 = molecular target: T3, rat 11β-HSD2 (Rattus norvegicus, UniProt P50233); conditions: previous study; cited from earlier work
T3 construct: kidney microsome fractions were obtained from male Wistar rats (7-week-old); from tissue; host or cells: rat kidney microsome fraction (male Wistar rats)
T3 sequence (P50233 1-400): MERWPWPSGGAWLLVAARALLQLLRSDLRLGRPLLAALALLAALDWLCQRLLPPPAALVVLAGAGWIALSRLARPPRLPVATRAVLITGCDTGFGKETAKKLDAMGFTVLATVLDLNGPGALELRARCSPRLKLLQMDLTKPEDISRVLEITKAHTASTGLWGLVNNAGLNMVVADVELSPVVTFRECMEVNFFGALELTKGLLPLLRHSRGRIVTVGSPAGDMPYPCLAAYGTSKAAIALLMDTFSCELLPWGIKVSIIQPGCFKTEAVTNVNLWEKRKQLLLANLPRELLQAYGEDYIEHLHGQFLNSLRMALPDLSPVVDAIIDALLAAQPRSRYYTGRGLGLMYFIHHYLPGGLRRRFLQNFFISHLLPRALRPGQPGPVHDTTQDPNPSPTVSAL

Tmax [1]: 6 h
Compound: CC1(C)[C@@H](O[C@@H]2O[C@H](C(=O)O)[C@@H](O)[C@H](O)[C@H]2O)CC[C@]2(C)[C@H]3C(=O)C=C4[C@@H]5C[C@@](C)(C(=O)O)CC[C@]5(C)CC[C@@]4(C)[C@]3(C)CC[C@@H]12 [Compound 3MGA, 3-monoglucuronyl glycyrrhetinic acid]
substrate of OAT1 (OAT1): is a substrate
substrate of OAT3 (OAT3): is a substrate
cross-reactivity of anti-3MGA MAb (anti-3MGA MAb): 100%
IC50 (rat 11β-HSD2): 260 nM

— publication PMC6197257 (Scientific Reports, 2018)
